Assay results reported in ChEMBL document CHEMBL4229478, “Synthesis, Characterization, and Biological Evaluation of a Porphyrin-Based Photosensitizer and Its Isomer for Effective Photodynamic Therapy against Breast Cancer” (J Med Chem, 2018).
The source made the active and inactive calls. No cut-off for these calls is given here.

Experiments:
[1] = Induction of singlet oxygen generation in cell free condition upon 635 nm semiconductor laser light irradiation by singlet oxygen sensor green dye based fluorescence spectrophotometeric analysis; type: functional
4T1 [2] = test: Phototoxicity against mouse 4T1 cells assessed as cell viability at 5 uM preincubated for 4 hrs followed by 0.5 to 2 J/cm2 light irradiation and measured after 24 hrs by MTT assay; type: functional, cell-based
MDA-MB-231 [3] = test: Phototoxicity against human MDA-MB-231 cells assessed as cell viability at 5 uM preincubated for 4 hrs followed by 0.5 to 2 J/cm2 light irradiation and measured after 24 hrs by MTT assay; type: functional, cell-based
MCF7 = test: Phototoxicity against human MCF7 cells assessed as cell viability at 5 uM preincubated for 4 hrs followed by 0.5 to 2 J/cm2 light irradiation and measured after 24 hrs by MTT assay; type: functional, cell-based
[4] = Dark toxicity against mouse 4T1 cells assessed as cell viability at 5 uM after 24 hrs by MTT assay; type: cell-based; conditions: 4t1, 24 h
[5] = Dark toxicity against human MDA-MB-231 cells assessed as cell viability at 5 uM after 24 hrs by MTT assay; type: cell-based; conditions: mda-mb-231, 24 h
[6] = Dark toxicity against human MCF7 cells assessed as cell viability at 5 uM after 24 hrs by MTT assay; type: cell-based; conditions: mcf7, 24 h
[7] = Selectivity index, ratio of dark toxicity against human MDA-MB-231 cells at 5 uM to phototoxicity against human MDA-MB-231 cells at 5 uM; type: cell-based; conditions: read-out: Selectivity Index
[8] = Selectivity index, ratio of dark toxicity against mouse 4T1 cells at 5 uM to phototoxicity against mouse 4T1 cells at 5 uM; type: cell-based; conditions: read-out: Selectivity Index
[9] = Selectivity index, ratio of dark toxicity against human MCF7 at 5 uM cells to phototoxicity against human MCF7 cells at 5 uM; type: cell-based; conditions: read-out: Selectivity Index
[10] = Drug uptake in human MDA-MB-231 cells up to 10 uM after 4 hrs by flow cytometric analysis; type: ADME, cell-based; conditions: mda-mb-231, 4 h
[11] = Drug uptake in human MDA-MB-231 cells at 5 to 10 uM after 4 hrs by fluorescence microscopic analysis; type: ADME, cell-based; conditions: mda-mb-231, 4 h
[12] = Drug uptake in kidney of BALB/c mouse xenografted with mouse 4T1 cells at 10 mg/kg, iv measured at 12 hrs post injection by IVIS spectrum imaging; type: ADME, organism-based; conditions: in vivo
[13] = Drug uptake in lung of BALB/c mouse xenografted with mouse 4T1 cells at 10 mg/kg, iv measured at 12 hrs post injection by IVIS spectrum imaging; type: ADME, organism-based; conditions: in vivo
[14] = Drug uptake in spleen of BALB/c mouse xenografted with mouse 4T1 cells at 10 mg/kg, iv measured at 12 hrs post injection by IVIS spectrum imaging; type: ADME, organism-based; conditions: in vivo
[15] = Drug uptake in heart of BALB/c mouse xenografted with mouse 4T1 cells at 10 mg/kg, iv measured at 12 hrs post injection by IVIS spectrum imaging; type: ADME, organism-based; conditions: in vivo
[16] = Drug uptake in mitochondria of human MDA-MB-231 cells after 4 hrs by Mito tracker green-based confocal laser scanning microscopic analysis; type: ADME; conditions: mda-mb-231, 4 h
[17] = Drug uptake in tumor of BALB/c mouse xenografted with mouse 4T1 cells at 10 mg/kg, iv measured at 12 hrs post injection by IVIS spectrum imaging; type: ADME, organism-based, Neoplasm; conditions: in vivo
MDA-MB-231 [18] = test: Induction of ROS generation in human MDA-MB-231 cells incubated with DCF-DA probe for 30 mins by flow cytometric analysis (reference value: 4.38%); type: cell-based; conditions: mda-mb-231, 0.5 h
MDA-MB-231 [19] = test: Induction of ROS generation in human MDA-MB-231 cells incubated with DCF-DA probe for 30 mins followed by 2 J/cm2 light irradiation and measured after 1 hr by flow cytometric analysis (reference value: 4.38%); type: functional
[20] = Drug uptake in tumor of BALB/c mouse xenografted with mouse 4T1 cells at 10 mg/kg, iv measured up to 3 to 24 hrs post injection by fluorescence assay; type: ADME, organism-based, Neoplasm; conditions: in vivo
MDA-MB-231 [21] = test: Induction of ROS generation in human MDA-MB-231 cells incubated with DCF-DA probe for 30 mins prior to ROS scavenger NAC addition 1 hr before 2 J/cm2 light irradiation and measured after 1 hr post irradiation by flow cytometric analysis; type: functional, cell-based
[22] = Tmax in tumor of BALB/c mouse xenografted with mouse 4T1 cells at 10 mg/kg, iv measured after […] by fluorescence assay; type: ADME, organism-based, Neoplasm
MDA-MB-231 [23] = test: Induction of apoptosis in human MDA-MB-231 cells assessed as early apoptotic cells after 24 hrs by Annexin-V FITC/propidium iodide staining based flow cytometric analysis (reference value: 1.22%); type: cell-based; conditions: mda-mb-231, 24 h
MDA-MB-231 [24] = test: Induction of apoptosis in human MDA-MB-231 cells assessed as late apoptotic cells after 24 hrs by Annexin-V FITC/propidium iodide staining based flow cytometric analysis (reference value: 1.28%); type: cell-based; conditions: mda-mb-231, 24 h
MDA-MB-231 [25] = test: Induction of apoptosis in human MDA-MB-231 cells assessed as necrotic cells after 24 hrs by Annexin-V FITC/propidium iodide staining based flow cytometric analysis (reference value: 4.24%); type: cell-based; conditions: mda-mb-231, 24 h
[26] = Induction of apoptosis in human MDA-MB-231 cells assessed as viable cells after 24 hrs by Annexin-V FITC/propidium iodide staining based flow cytometric analysis (reference value: 93.27%); type: cell-based; conditions: read-out: Activity
MDA-MB-231 [27] = test: Induction of apoptosis in human MDA-MB-231 cells assessed as early apoptotic cells after 24 hrs upon light irradiation by Annexin-V FITC/propidium iodide staining based flow cytometric analysis (reference value: 1.22%); type: functional
MDA-MB-231 [28] = test: Induction of apoptosis in human MDA-MB-231 cells assessed as late apoptotic cells after 24 hrs upon light irradiation by Annexin-V FITC/propidium iodide staining based flow cytometric analysis (reference value: 1.28%); type: functional
MDA-MB-231 [29] = test: Induction of apoptosis in human MDA-MB-231 cells assessed as necrotic cells after 24 hrs upon light irradiation by Annexin-V FITC/propidium iodide staining based flow cytometric analysis (reference value: 4.24%); type: functional
MDA-MB-231 [30] = test: Induction of apoptosis in human MDA-MB-231 cells assessed as viable cells after 24 hrs upon light irradiation by Annexin-V FITC/propidium iodide staining based flow cytometric analysis (reference value: 93.27%); type: functional
4T1 [31] = test: Antitumor activity against mouse 4T1 cells xenografted in BALB/c mouse assessed as tumor growth inhibition at 4 mg/kg, iv pretreated for 24 hrs followed by 50 J/cm2 light irradiation and measured at day 22 post last dose; type: functional, organism-based
4T1 [32] = test: Induction of apoptosis in mouse 4T1 cells xenografted in BALB/c mouse at 4 mg/kg, iv pretreated for 24 hrs followed by 50 J/cm2 light irradiation by TUNEL assay; type: functional, organism-based
Mus musculus [33] = test: Toxicity in BALB/c mouse xenografted with mouse 4T1 cells assessed as effect on body weight at 4 mg/kg, iv measured at day 22 post last dose; type: organism-based; conditions: in vivo
Mus musculus [34] = test: Toxicity in BALB/c mouse xenografted with mouse 4T1 cells assessed as effect on body weight at 4 mg/kg, iv pre-tretaed for 24 hrs followed by 50 J/cm2 light irradiation and measured at day 22 post dose; type: organism-based; conditions: in vivo
Mus musculus [35] = test: Hepatotoxicity in BALB/c mouse xenografted with mouse 4T1 cells assessed as pathological changes in liver at 4 mg/kg, iv pre-tretaed for 24 hrs followed by 50 J/cm2 light irradiation and measured at day 22 post dose by hematoxylin and eosin staining based light microscopic analysis; type: toxicity, organism-based; conditions: in vivo
Mus musculus [36] = test: Nephrotoxicity in BALB/c mouse xenografted with mouse 4T1 cells assessed as pathological changes in kidney at 4 mg/kg, iv pre-tretaed for 24 hrs followed by 50 J/cm2 light irradiation and measured at day 22 post dose by hematoxylin and eosin staining based light microscopic analysis; type: toxicity, organism-based; conditions: in vivo
Mus musculus [37] = test: Toxicity in BALB/c mouse xenografted with mouse 4T1 cells assessed as pathological changes in spleen at 4 mg/kg, iv pre-tretaed for 24 hrs followed by 50 J/cm2 light irradiation and measured at day 22 post dose by hematoxylin and eosin staining based light microscopic analysis; type: organism-based; conditions: in vivo
Mus musculus [38] = test: Toxicity in BALB/c mouse xenografted with mouse 4T1 cells assessed as pathological changes in lung at 4 mg/kg, iv pre-tretaed for 24 hrs followed by 50 J/cm2 light irradiation and measured at day 22 post dose by hematoxylin and eosin staining based light microscopic analysis; type: organism-based; conditions: in vivo

SMILES: COC(C)C1=C(C)c2cc3[nH]c(cc4nc(cc5[nH]c(cc1n2)c(C)c5CCC(=O)O)C(CCC(=O)O)=C4C)c(C)c3C(C)O (centres undefined)
- Activity [1]: Dose-dependent effect
- Activity (4T1 [2]): Active
- Activity (MDA-MB-231 [3]): Active
- Activity (MCF7): Active
- Activity [4]: Non-Toxic
- Activity [5]: Non-Toxic
- Activity [6]: Non-Toxic
- selectivity ratio at 5 µM [7]: 18.8
- selectivity ratio at 5 µM [8]: 12
- selectivity ratio at 5 µM [9]: 16.8
- Drug uptake [10]: Not Active
- Drug uptake [11]: Not Active
- Drug uptake [12]: Not Active
- Drug uptake [13]: Not Active
- Drug uptake [14]: Not Active
- Drug uptake [15]: Not Active
- Drug uptake [16]: Active
- Drug uptake [17]: Active
- Activity (MDA-MB-231 [18]): 5.7%
- Activity (MDA-MB-231 [19]): 25.13%
- Drug uptake [20]: Active
- Activity (MDA-MB-231 [21]): inactive
- Tmax [22]: 12 h
- Activity (MDA-MB-231 [23]): 1.99%
- Activity (MDA-MB-231 [24]): 1.76%
- Activity (MDA-MB-231 [25]): 4.02%
- viability at 24 h [26]: 92.2%
- Activity (MDA-MB-231 [27]): 3.91%
- Activity (MDA-MB-231 [28]): 30.5%
- Activity (MDA-MB-231 [29]): 6.83%
- Activity (MDA-MB-231 [30]): 58.77%
- TGI (4T1 [31]): inactive
- Activity (4T1 [32]): Active
- Activity (Mus musculus [33]): Non-Toxic
- Activity (Mus musculus [34]): Non-Toxic
- Activity (Mus musculus [35]): Non-Toxic
- Activity (Mus musculus [36]): Non-Toxic
- Activity (Mus musculus [37]): Non-Toxic
- Activity (Mus musculus [38]): Non-Toxic
